Results as given in US20250127759A1, “METHODS AND DOSING REGIMENS COMPRISING A CDK2 INHIBITOR FOR THE TREATMENT OF CANCER” (PFIZER INC., priority 2021, published 2025).
Marks after values point to notes of the source that are not given here.

Key:
MCF7 Cells = assay: Combination cell proliferation assay, MCF7; type: cell-based, human
Procedure: (§1) The combination effects of PF-07104091 with palbociclib were evaluated in a cell proliferation assay with MCF7 and T47D BC cell lines. […] Drug combinations were analyzed using the Dose Equivalence Principle, and the Loewe Volume score. When modeling synergy using the Dose Equivalence Principle, the Loewe Volume score for the combination compounds should be greater than the compound self-cross controls, and the Combination Index score for the combination compounds should be less than compound self-cross controls. […] Furthermore, the isobolograms set to an anti-proliferation threshold at 70% confirm a synergistic response.

T-47D Cells = assay: Combination cell proliferation assay, T47D; type: cell-based, human
Procedure: as §1

NCI-H526 Model = assay: In vivo efficacy, NCI-H526 small cell lung cancer model; parameters: species or system mice
Procedure: Female NSG (Jackson Lab) or Nu/nu (CRL) were subcutaneously implanted with tumor cells or fragments (8 mm^3 to 27 mm^3) into the dorsal region. For the MCF7 study, mice were supplemented with estrogen (sc implanted, 17β-estradiol, 0.36 mg, 90-day release pellet, Innovative Research of America, cat no. NE-121).
To establish the NCI-H526 model, tumor cells (4×10^6 cells/mouse with 50% Cultrex® Basement Membrane Matrix) were subcutaneously implanted in female Nu/nu mice. […] PF-07104091, Palbociclib at 10 mg/kg and CDK 2/4/6 inhibitor were administered (p.o.) BID (7 hr apart). TGI was assessed on Day 15 post first dose (or Day 20 post tumor cell implant).

T47D = assay: In vivo efficacy, T47D breast cancer model; parameters: species or system mice; settings: Day 41, 10 mg/kg BID PO
Procedure: (§2) The T47D model was established by implanting passage 3 tumor fragments into recipient mice. To establish the T47D donor mice, tumor cells (5×10^6 cell/mouse with 50% Cultrex® Basement Membrane Matrix) were subcutaneously implanted in female NSG mice. […] All mice received treatment continuously until Day 41. TGI was assessed on Day 41 post first dose.

HCC1428 = assay: In vivo efficacy, HCC1428 breast cancer model; parameters: species or system mice; settings: Day 42, 10 mg/kg BID PO, 10 mg/kg
Procedure: as §2, with “HCC1428” for “T47D”, “4” for “3”, “42.” for “41.”, “42” for “41”

ST941PBR PDX = assay: In vivo efficacy, palbociclib-resistant ST941PBR PDX model; settings: Day 28, 10 mg/kg BID PO
Procedure: Female NSG mice (Jackson Lab) were subcutaneously implanted with fragment (27 mm^3 to 64 mm^3 size) into the dorsal region. All mice for T47D, HCC1428 and ST941 PBR studies were supplemented with 8.5 μg/mL estradiol water (β-Estradiol Sigma-Aldrich, cat #E2758-5G) and gave ad libitum till end of study. For the in vivo efficacy studies, tumor volume and body weights were measured twice a week. Tumor volume was calculated using the [(Length×Width×Width)/2)] formula. TGI was calculated as 100*(1−ΔT/ΔC). The ΔC (ΔT) was obtained by subtracting the mean tumor burden in the vehicle (treated) group on the first day of treatment (Day 0) from the mean tumor burden in vehicle (treated) group on the assessment day. Statistical analysis was performed using ANCOVA when the mean tumor volume in vehicle treated mice reached tumor cutoff size.
The ST941 PBR palbociclib resistant model was obtained from XENOSTART™ LLC, San Antonio, Texas. We established model in house by continuous treatment of the ST941 PBR tumor bearing mice with PD-0332991 at 50 mg/kg, PO QD plus fulvestrant at 10 mg/kg, SC twice in the first week, then weekly thereafter. To propagate donors for the TGI study, tumors were transplanted to recipient mice. One week after the re-implantation, the recipient mice received continuous treatment with palbociclib plus fulvestrant (dosing schedule described above). After 1 to 2 serial in vivo propagation with the same treatment regimen, the resistant tumors in the range of 700 to 800 mm^3 were re-implanted for a study expansion. The remaining tumor fragments were viably frozen for future use.
The live donor mice were established by implanting ST941 PBR (p11) tumor fragments. Once reaching a range of 700 to 800 mm^3, the donor tumors were subsequently transplanted into secondary recipient mice for a study expansion. To maintain the resistant clones, the ST941 PBR tumor bearing mice were treated with PD-0332991 at 50 mg/kg, PO. QD plus fulvestrant at 10 mg/kg, SC twice in the first week, then weekly afterwards for 10 weeks. […] TGI was assessed on Day 28 post first dose.

SMILES: CC(=O)c1c(C)c2cnc(Nc3ccc(N4CCNCC4)cn3)nc2n(C2CCCC2)c1=O [Palbociclib, palbociclib, reference compound]
- Loewe Volume (MCF7 Cells): −0.16
- Best CI (MCF7 Cells; Best CI Level 70): 0.94
- Loewe Volume (T-47D Cells): −0.25
- Best CI (T-47D Cells; Best CI Level 70): 0.96
- TGI % (NCI-H526 Model; 10 mg/kg BID PO, Day 15): 33%
- TGI % (NCI-H526 Model; 10 mg/kg BID PO, Day 15, listed as palbociclib): 33%
- TGI % (NCI-H526 Model; 50 mg/kg SID PO, Day 15): 22%
- TGI % (NCI-H526 Model; 50 mg/kg SID PO, Day 15, listed as palbociclib): 22%
- TGI % (T47D): 72* %
- TGI % (HCC1428): 44* %
- TGI % (HCC1428; listed as palbociclib): 44%
- TGI % (ST941PBR PDX): 15%
